Source: article PMC9989278, “Characterization of substrates and inhibitors of the human heterodimeric transporter 4F2hc-LAT1 using purified protein and the scintillation proximity radioligand binding assay” (Frontiers in Physiology, 2023)
Read-outs that look alike come from different tables or passages of the source.

Assays:
human 4F2hc-LAT1 [1] = molecular target: T1, human 4F2hc-LAT1 (Homo sapiens, UniProt Q01650); experiment: Scintillation proximity radioligand binding assay (SPA), [3H]L-leucine competition on purified protein; conditions: for Binding of [3H]L-Leucine (%), residual radioligand binding / Binding of [3H]L-Leucine (%), residual radioligand binding (RRB): normalized to control without competitor; for Binding of [3H]L-Leucine (%), residual radioligand binding: mean of three experiments
T1 construct: Strep-tag (N); made in house; host or cells: Pichia pastoris strain KM71H
T1 sequence (Q01650 whole entry): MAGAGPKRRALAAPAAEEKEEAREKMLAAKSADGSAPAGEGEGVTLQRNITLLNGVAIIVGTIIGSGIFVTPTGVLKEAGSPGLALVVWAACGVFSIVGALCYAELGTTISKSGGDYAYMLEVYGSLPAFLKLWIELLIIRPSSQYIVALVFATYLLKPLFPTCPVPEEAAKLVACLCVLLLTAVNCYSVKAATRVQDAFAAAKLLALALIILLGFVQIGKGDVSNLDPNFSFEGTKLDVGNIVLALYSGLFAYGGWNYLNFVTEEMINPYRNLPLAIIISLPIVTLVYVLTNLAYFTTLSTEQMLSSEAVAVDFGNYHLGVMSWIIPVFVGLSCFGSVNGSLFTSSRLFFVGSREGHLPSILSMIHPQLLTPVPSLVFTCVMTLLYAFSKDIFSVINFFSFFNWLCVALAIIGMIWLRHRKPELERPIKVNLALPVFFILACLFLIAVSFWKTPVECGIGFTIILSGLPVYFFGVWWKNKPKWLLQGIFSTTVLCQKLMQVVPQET
T1 sequence (P08195 102-630 partner): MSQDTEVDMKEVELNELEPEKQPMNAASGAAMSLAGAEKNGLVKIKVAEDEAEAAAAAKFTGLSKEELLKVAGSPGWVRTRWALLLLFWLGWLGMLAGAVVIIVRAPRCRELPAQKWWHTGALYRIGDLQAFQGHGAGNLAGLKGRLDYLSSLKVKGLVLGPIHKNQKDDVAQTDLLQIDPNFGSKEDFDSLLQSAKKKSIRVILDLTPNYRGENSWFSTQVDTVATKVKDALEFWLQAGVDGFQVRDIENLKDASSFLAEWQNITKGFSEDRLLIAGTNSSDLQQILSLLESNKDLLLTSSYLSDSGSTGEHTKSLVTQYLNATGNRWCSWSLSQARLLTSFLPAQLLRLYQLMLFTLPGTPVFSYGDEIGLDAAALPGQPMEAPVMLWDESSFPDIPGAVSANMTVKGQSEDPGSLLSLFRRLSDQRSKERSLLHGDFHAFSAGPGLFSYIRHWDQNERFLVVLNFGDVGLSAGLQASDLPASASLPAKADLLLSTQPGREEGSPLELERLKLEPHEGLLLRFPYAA
Protocol: Purified, GDN-solubilized human 4F2hc-LAT1 was attached via the His-tag to polyvinyltolune (PVT) copper His-tag SPA beads (Perkin Elmer) and the protein-bound [^3H]L-leucine quantified using a scintillation counter (a detailed description of SPA with 4F2hc-LAT1 is given in the methodological publication by ([Kantipudi et al., 2021])). Briefly, experiments were conducted in 96-well plates and per well a reaction volume of 50 µL containing 250 µg PVT-SPA-beads, 1.75 µg 4F2hc-LAT1 protein, 2.5 μM L-leucine spiked with 0.5 µCi [^3H]L-leucine (ARC/Anawa, 100 Ci/mmol, 1 mCi/ml) plus a condition-specific substance. All components were dissolved in SPA-Buffer (100 mM BTP pH 8, 150 mM NaCl, 10% (v/v) glycerol, 0.5% (w/v) GDN). For some condition-specific substances (i.e., the thyroid hormones), 20 min sonication in a water bath at 4°C was necessary to dissolve them at 10× concentration in SPA-Buffer. Per reaction, 5 µL of a 10× stock solution of the condition-specific substance was placed in a well and diluted with 45 µL of a master mix containing the remaining components. For determining the substrate specificities (Figure 1), the twenty proteogenic L-amino acids and D-leucine were used as competitors at a final concentration of 250 µM. For determining the K D of L-leucine (Figure 2A) and K i of L-histidine (Figure 2B), homologous (L-leucine) and heterologous (L-histidine) substrate competition was applied at concentrations ranging from 0.01 to 1600 µM. […] The binding specificities of structural analogues of L-leucine (Figure 3) and L-histidine (Figure 4) were tested at a final competitor concentration of 250 µM. […] To avoid minor unspecific binding of radioactive L-leucine to the beads, the master mix was created in a specific procedure: SPA-beads were first mixed with the unlabeled L-leucine and shaken for 2 h at 4°C before adding the remaining components (protein last). For background subtraction in the bar graph experiments, a no-protein control was included using protein-free master mix (i.e., containing buffer instead of protein solution). The plate was shortly mixed by shaking and incubated at 4°C for ∼18 h before the signals were counted using a microplate scintillation counter (Trilux Microbeta, Perkin Elmer). […] Three experiments with protein from at least two different purifications were performed, each at least in triplicates.
Data were analyzed with Prism 6 (GraphPad Software). […] Each experiment was done with sample number of at least three (triplicate). Data of three independent experiments were merged by adding the normalized data to a common data set, which was used for curve fitting. For data analysis of the bar graphs, the signal of the no-protein control was subtracted from the transporter signal to obtain the net binding signal.

human 4F2hc-LAT1 [2] = molecular target: T1, human 4F2hc-LAT1; conditions: ref Kantipudi et al., 2020, cited from earlier work
recombinant human LAT1 = test system: recombinant human LAT1; set-up: method as in Napolitano et al., 2015; conditions: proteoliposomes, ref Napolitano et al., 2015, cited from earlier work
[3] = Figure 3, L-leucine analogues, competitor 250 µM
[4] = Figure 4, L-histidine analogues, competitor 250 µM
[5] = heterologous competition with [3H]L-leucine, Figure 2B, C, E, F, read-out: Ki

## Nc1cc(COc2c(Cl)cc(C[C@H](N)C(=O)O)cc2Cl)c2oc(-c3ccccc3)nc2c1 [JPH203, (S)-2-amino-3-(4-((5-amino-2-phenylbenzo [d]oxazol-7-yl)-methoxy)-3,5-dichlorophenyl)-propanoic acid]
Human 4F2hc-LAT1 [1]; heterologous competition with [3H]L-leucine, Figure 2D, read-out: Ki
  Ki: 0.079 µM

## N=C(N)NCCC[C@H](N)C(=O)O [Arg]
Human 4F2hc-LAT1 [1]; Figure 1, competitor 250 µM
  Binding of [3H]L-Leucine (%), residual radioligand binding: 68%

## NC(=O)C[C@H](N)C(=O)O [Asn]
Human 4F2hc-LAT1 [1]; Figure 1, competitor 250 µM
  Binding of [3H]L-Leucine (%), residual radioligand binding: 35%

## C[C@@H](O)[C@H](N)C(=O)O [Thr]
Human 4F2hc-LAT1 [1]; Figure 1, competitor 250 µM
  Binding of [3H]L-Leucine (%), residual radioligand binding: 34%

## N[C@@H](Cc1ccccc1)C(=O)O [Phe, L-phenylalanine]
Human 4F2hc-LAT1 [1]; Figure 1, competitor 250 µM
  Binding of [3H]L-Leucine (%), residual radioligand binding: 29%
Human 4F2hc-LAT1 [1]; Figure 1, competitor 250 µM, listed as L-phenylalanine
  Binding of [3H]L-Leucine (%), residual radioligand binding: 19-29%

## CC(C)(C)[C@H](N)C(=O)O [L-tert-Leucine, L-tert-leucine]
Human 4F2hc-LAT1 [1]; [3]
  Binding of [3H]L-Leucine (%), residual radioligand binding (RRB): 37%
Human 4F2hc-LAT1 [1]; Figure 3, L-leucine analogues, competitor 250 µM, listed as L-tert-leucine
  Binding of [3H]L-Leucine (%), residual radioligand binding (RRB): 37–45%

## CN[C@@H](Cc1c[nH]cn1)C(=O)O [N-Methyl L-Histidine, N-methyl-L-histidine]
Human 4F2hc-LAT1 [1]; [4]
  Binding of [3H]L-Leucine (%), residual radioligand binding (RRB): 103%
Human 4F2hc-LAT1 [1]; competitor 250 µM
  binding / inhibition of [3H]L-leucine binding to 4F2hc-LAT1, in words: no significant binding

## N[C@@H](CO)C(=O)O [Ser]
Human 4F2hc-LAT1 [1]; Figure 1, competitor 250 µM
  Binding of [3H]L-Leucine (%), residual radioligand binding: 46%

## NCCCC[C@H](N)C(=O)O [Lys]
Human 4F2hc-LAT1 [1]; Figure 1, competitor 250 µM
  Binding of [3H]L-Leucine (%), residual radioligand binding: 45%

## NCC(=O)O [Gly]
Human 4F2hc-LAT1 [1]; Figure 1, competitor 250 µM
  Binding of [3H]L-Leucine (%), residual radioligand binding: 44%

## CC(C)(C)C[C@H](N)C(=O)O [L-Neopentylglycine, L-neopentyl glycine]
Human 4F2hc-LAT1 [1]; [3]
  Binding of [3H]L-Leucine (%), residual radioligand binding (RRB): 43%
Human 4F2hc-LAT1 [1]; Figure 3, L-leucine analogues, competitor 250 µM, listed as L-neopentyl glycine
  Binding of [3H]L-Leucine (%), residual radioligand binding (RRB): 32–43%

## CC[C@H](C)[C@H](N)C(=O)O [L-Isoleucine, L-isoleucine]
Human 4F2hc-LAT1 [1]; Figure 1, competitor 250 µM
  Binding of [3H]L-Leucine (%), residual radioligand binding: 19-29%
Human 4F2hc-LAT1 [1]; Figure 1, competitor 250 µM, listed as Ile
  Binding of [3H]L-Leucine (%), residual radioligand binding: 22%
Human 4F2hc-LAT1 [1]; [3]
  Binding of [3H]L-Leucine (%), residual radioligand binding (RRB): 28%

## COC(=O)[C@@H](N)CC(C)C [L-Leucine-Methyl Ester, L-leucine-methyl ester]
Human 4F2hc-LAT1 [1]; [3]
  Binding of [3H]L-Leucine (%), residual radioligand binding (RRB): 106%
Human 4F2hc-LAT1 [1]; competitor 250 µM
  binding / inhibition of [3H]L-leucine binding to 4F2hc-LAT1, in words: no significant binding

## CC(C)C[C@@H](N)C(=O)O [D-Leu, D-leucine]
Human 4F2hc-LAT1 [1]; Figure 1, competitor 250 µM
  Binding of [3H]L-Leucine (%), residual radioligand binding: 52%
Human 4F2hc-LAT1 [1]; competitor 250 µM, Figure 1
  inhibition of [3H]L-leucine binding: about 50%

## NC1(C(=O)O)CC2CCC1C2 (centres unmarked) [BCH, 2-aminobicyclo-(2,2,1)-heptane-2-carboxylic acid]
Human 4F2hc-LAT1 [1]; [5]
  Ki: 81 µM

## N[C@@H](CC(=O)O)C(=O)O [Asp]
Human 4F2hc-LAT1 [1]; Figure 1, competitor 250 µM
  Binding of [3H]L-Leucine (%), residual radioligand binding: 45%

## C[C@H](N)C(=O)O [Ala]
Human 4F2hc-LAT1 [1]; Figure 1, competitor 250 µM
  Binding of [3H]L-Leucine (%), residual radioligand binding: 36%

## Cn1cncc1C[C@H](N)C(=O)O [3-Methyl L-Histidine, 3-methyl-L-histidine]
Human 4F2hc-LAT1 [1]; [4]
  Binding of [3H]L-Leucine (%), residual radioligand binding (RRB): 64%
Human 4F2hc-LAT1 [1]; Figure 4, L-histidine analogues, competitor 250 µM, listed as 3-methyl-L-histidine
  Binding of [3H]L-Leucine (%), residual radioligand binding (RRB): 59–64%

## N[C@@H](CCC(=O)O)C(=O)O [Glu]
Human 4F2hc-LAT1 [1]; Figure 1, competitor 250 µM
  Binding of [3H]L-Leucine (%), residual radioligand binding: 90%

## N[C@@H](CS)C(=O)O [Cys]
Human 4F2hc-LAT1 [1]; Figure 1, competitor 250 µM
  Binding of [3H]L-Leucine (%), residual radioligand binding: 35%

## N[C@@H](Cc1ccc(O)cc1)C(=O)O [Tyr, L-tyrosine]
Human 4F2hc-LAT1 [1]; Figure 1, competitor 250 µM
  Binding of [3H]L-Leucine (%), residual radioligand binding: 26%
Human 4F2hc-LAT1 [1]; Figure 1, competitor 250 µM, listed as L-tyrosine
  Binding of [3H]L-Leucine (%), residual radioligand binding: 19-29%

## CSCC[C@H](N)C(=O)O [Met]
Human 4F2hc-LAT1 [1]; Figure 1, competitor 250 µM
  Binding of [3H]L-Leucine (%), residual radioligand binding: 36%

## NC(Cc1cc(I)c(Oc2cc(I)c(O)c(I)c2)c(I)c1)C(=O)O (centres unmarked) [T4, thyroxine]
Human 4F2hc-LAT1 [1]
  Ki: 10 µM

## CC(C)C[C@H](N)C(=O)O [L-Leucine, L-leucine]
Human 4F2hc-LAT1 [2]; P. pastoris cell uptake assay
  Km: 25 µM
Human 4F2hc-LAT1 [1]; Figure 1, competitor 250 µM
  Binding of [3H]L-Leucine (%), residual radioligand binding: 1%
Human 4F2hc-LAT1 [1]; [3]
  Binding of [3H]L-Leucine (%), residual radioligand binding (RRB): 1%
Human 4F2hc-LAT1 [1]; competitor 250 µM
  binding / inhibition of [3H]L-leucine binding to 4F2hc-LAT1, in words: inhibited strongly
Human 4F2hc-LAT1 [1]; homologous competition with [3H]L-leucine, Figure 2A
  Kd: 26 µM

## Cn1cnc(C[C@H](N)C(=O)O)c1 [1-Methyl L-Histidine, 1-methyl-L-histidine]
Human 4F2hc-LAT1 [1]; [4]
  Binding of [3H]L-Leucine (%), residual radioligand binding (RRB): 59%
Human 4F2hc-LAT1 [1]; Figure 4, L-histidine analogues, competitor 250 µM, listed as 1-methyl-L-histidine
  Binding of [3H]L-Leucine (%), residual radioligand binding (RRB): 59–64%

## CN[C@@H](CC(C)C)C(=O)O [N-Methyl-L-Leucine, N-methyl-L-leucine]
Human 4F2hc-LAT1 [1]; [3]
  Binding of [3H]L-Leucine (%), residual radioligand binding (RRB): 103%
Human 4F2hc-LAT1 [1]; competitor 250 µM
  binding / inhibition of [3H]L-leucine binding to 4F2hc-LAT1, in words: no significant binding

## CCCC[C@H](N)C(=O)O [L-Norleucine, L-norleucine]
Human 4F2hc-LAT1 [1]; [3]
  Binding of [3H]L-Leucine (%), residual radioligand binding (RRB): 62%

## CC(C)[C@H](N)C(=O)O [L-Valine, L-valine]
Human 4F2hc-LAT1 [1]; Figure 1, competitor 250 µM
  Binding of [3H]L-Leucine (%), residual radioligand binding: 19-29%
Human 4F2hc-LAT1 [1]; Figure 1, competitor 250 µM, listed as Val
  Binding of [3H]L-Leucine (%), residual radioligand binding: 19%
Human 4F2hc-LAT1 [1]; [3]
  Binding of [3H]L-Leucine (%), residual radioligand binding (RRB): 27%

## CC[C@H](N)C(=O)O [L-2-Aminobutyric Acid, L-2-aminobutyric acid]
Human 4F2hc-LAT1 [1]; [3]
  Binding of [3H]L-Leucine (%), residual radioligand binding (RRB): 45%
Human 4F2hc-LAT1 [1]; Figure 3, L-leucine analogues, competitor 250 µM, listed as L-2-aminobutyric acid
  Binding of [3H]L-Leucine (%), residual radioligand binding (RRB): 37–45%

## CCC[C@H](N)C(=O)O [L-Norvaline, L-norvaline]
Human 4F2hc-LAT1 [1]; [3]
  Binding of [3H]L-Leucine (%), residual radioligand binding (RRB): 32%
Human 4F2hc-LAT1 [1]; Figure 3, L-leucine analogues, competitor 250 µM, listed as L-norvaline
  Binding of [3H]L-Leucine (%), residual radioligand binding (RRB): 32–43%

## COC(=O)[C@@H](N)Cc1c[nH]cn1 [L-Histidine Methyl Ester, L-histidine-methyl ester]
Human 4F2hc-LAT1 [1]; [4]
  Binding of [3H]L-Leucine (%), residual radioligand binding (RRB): 102%
Human 4F2hc-LAT1 [1]; competitor 250 µM
  binding / inhibition of [3H]L-leucine binding to 4F2hc-LAT1, in words: no significant binding

## N[C@@H](Cc1c[nH]c2ccccc12)C(=O)O [Trp, L-tryptophan]
Human 4F2hc-LAT1 [1]; Figure 1, competitor 250 µM
  Binding of [3H]L-Leucine (%), residual radioligand binding: 21%
Human 4F2hc-LAT1 [1]; Figure 1, competitor 250 µM, listed as L-tryptophan
  Binding of [3H]L-Leucine (%), residual radioligand binding: 19-29%

## N[C@@H](Cc1c[nH]cn1)C(=O)O [L-Histidine, L-histidine]
Human 4F2hc-LAT1 [2]; [3H]L-leucine uptake inhibition, P. pastoris cells
  IC50: 23 µM
Recombinant human LAT1; external side, read-out: external Km
  Km: 24.6 µM
Recombinant human LAT1; internal side, read-out: internal Km
  Km: 2800 µM
Human 4F2hc-LAT1 [1]; Figure 1, competitor 250 µM
  Binding of [3H]L-Leucine (%), residual radioligand binding: 2%
Human 4F2hc-LAT1 [1]; [4]
  Binding of [3H]L-Leucine (%), residual radioligand binding (RRB): 1%
Human 4F2hc-LAT1 [1]; competitor 250 µM
  binding / inhibition of [3H]L-leucine binding to 4F2hc-LAT1, in words: inhibited strongly
Human 4F2hc-LAT1 [1]; [5]
  Ki: 28 µM

## NC(=O)CC[C@H](N)C(=O)O [Gln, L-glutamine]
Human 4F2hc-LAT1 [1]; Figure 1, competitor 250 µM
  Binding of [3H]L-Leucine (%), residual radioligand binding: 29%
